Test results from PMC7381538, “Broad spectrum antibiotic-degrading metallo-β-lactamases are phylogenetically diverse” (Protein & Cell, 2020).

Legend:
[1] = target: SPR-1trunc (Serratia proteamaculans, UniProt Z9GZR1QZ95); format: biochemical; details: beta-lactam substrate and mode only in supplement
[2] = target: SER-1trunc; format: biochemical; details: beta-lactam substrate and mode only in supplement

Chain of SPR-1trunc (Z9GZR1QZ95 50-298 limits assumed): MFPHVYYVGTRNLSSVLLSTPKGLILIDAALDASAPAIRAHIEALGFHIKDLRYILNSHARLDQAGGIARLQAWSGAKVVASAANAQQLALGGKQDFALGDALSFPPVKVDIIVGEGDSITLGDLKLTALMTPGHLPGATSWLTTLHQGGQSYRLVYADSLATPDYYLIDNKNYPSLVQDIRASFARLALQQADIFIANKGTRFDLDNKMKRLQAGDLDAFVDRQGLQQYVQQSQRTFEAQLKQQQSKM

Compound: O=C(O)[C@H]1/C(=C/CO)O[C@@H]2CC(=O)N21 [CA, clavulanic acid]
- Ki [1]: 201 µM
- Ki [2]: 290 µM
